According to patent US12378211B2, “Carbonic anhydrase inhibitors and antibiotics against multidrug resistant bacteria” (Purdue Research Foundation, priority 2018, dated 2025):
≈ marks a conversion by molar mass, not a printed value. Like-named read-outs stand apart in the source and are kept apart here.

Tests used:
[1] = tested on: Enterococcus fecalis Strain SF 28073-NR31972; assay: MIC, broth microdilution in TSB; format: cell-based; conditions: TSB; for MIC: Enterococcus
Procedure: (§1) The minimum inhibitory concentrations (MICs) of the compounds and control drugs were determined using the broth microdilution method, according to guidelines outlined by the Clinical and Laboratory Standards Institute (CLSI). Enterococci strains were grown aerobically overnight on tryptone soya agar plates at 37° C., afterwards a bacterial solution equivalent to 0.5 McFarland standard was prepared and diluted in tryptone soy broth (TSB) to achieve a bacterial concentration of about 5×10^5 CFU/mL and seeded in 96-well well plates. Compounds and control drugs were added in the first row of the 96-well plates and serially diluted along the plates. Plates were then incubated aerobically at 37° C. for 18-20 hours. MICs reported in Table 1 are the minimum concentration of the compounds/control drugs that could inhibit completely the visual growth of the bacteria.

[2] = tested on: Enterococcus faecium E417-HM-965; assay: MIC, broth microdilution in TSB; format: cell-based; conditions: TSB; for MIC: Enterococcus faecium, E417HM965
Procedure: as §1

[3] = tested on: Enterococcus faecium Patient #3-1 NR-31912; assay: MIC, broth microdilution in TSB; format: cell-based; conditions: TSB; for MIC: Enterococcus faecium
Procedure: as §1

[4] = tested on: Enterococcus faecium Patient #2-1-NR-31909; assay: MIC, broth microdilution in TSB; format: cell-based; conditions: TSB; for MIC: Enterococcus faecium
Procedure: as §1

[5] = tested on: Enterococcus faecalis—S613 HM-334; assay: MIC, broth microdilution in TSB; format: cell-based; conditions: TSB; for MIC: Enterococcus
Procedure: as §1

[6] = tested on: Enterococcus fecalis Strain MMH594-NR31975; assay: MIC, broth microdilution in TSB; format: cell-based; conditions: TSB; for MIC: Enterococcus
Procedure: as §1

[7] = tested on: Enterococcus fecalis Strain SF24413 NR31971; assay: MIC, broth microdilution in TSB; format: cell-based; conditions: TSB; for MIC: Enterococcus
Procedure: as §1

[8] = tested on: Enterococcus fecalis Strain SF 24397 NR31970; assay: MIC, broth microdilution in TSB; format: cell-based; conditions: TSB; for MIC: Enterococcus
Procedure: as §1

[9] = tested on: Lactobacillus gasseri EX336960VC03 HIM-400; assay: MIC against human normal gut microbiota; format: cell-based; conditions: Lactobacillus gasseri; MRS broth, 5% CO2, 48 hours; read-out: MIC
Procedure: (§2) Three different bacterial strains were used in this experiment; Bifidobacterium (anaerobic Gram positive bacteria), Bacteroides (anaerobic Gram negative bacteria) and Lactobacillus (microaerophilic Gram positive bacteria). Bifidobacterium and Bacteroides were first grown for 48 hours at 37° C., anaerobically using brain heart infusion supplemented (BHIS) agar (Brain heart infusion agar supplemented with hemin, vitamin K and L-cysteine). Lactobacillus was cultivated on MRS agar and incubated in presence of 5% CO2 for 48 hours at 37° C. Each bacterium was suspended in phosphate buffered saline (PBS) to produce a suspension with optical density that matches 0.5 McFarland standard and diluted in brain heart infusion supplemented broth (for Bifidobacterium and Bacteroides) or in MRS broth (for Lactobacillus) to achieve bacterial concentration of approximately 5×10^5 CFU/ml. Bacteria were then seeded in 96-well plates containing serial dilutions of the compounds and incubated as mentioned previously for 48 hours.

[10] = tested on: Lactobacillus casei ATCC 334; assay: MIC against human normal gut microbiota; format: cell-based; conditions: Lacticaseibacillus casei, ATCC334; MRS broth, 5% CO2, 48 hours; read-out: MIC
Procedure: as §2

[11] = tested on: Bifidobacterium breve—JCP7499 HIM 1120; assay: MIC against human normal gut microbiota; format: cell-based; conditions: Bifidobacterium; BHIS broth, anaerobic, 48 hours; read-out: MIC
Procedure: as §2

[12] = tested on: Bacteroides fragilis—CL07T00C01 HIM-709; assay: MIC against human normal gut microbiota; format: cell-based; conditions: Bacteroides; BHIS broth, anaerobic, 48 hours; read-out: MIC
Procedure: as §2

[13] = tested on: Bifidobacterium longum subsp. Longum—44B HM 845; assay: MIC against human normal gut microbiota; format: cell-based; conditions: Bifidobacterium longum; BHIS broth, anaerobic, 48 hours; read-out: MIC
Procedure: as §2

[14] = tested on: Bacteroides dorei—CL02T12C06 HM-719; assay: MIC against human normal gut microbiota; format: cell-based; conditions: Bacteroides; BHIS broth, anaerobic, 48 hours; read-out: MIC
Procedure: as §2

[15] = tested on: Staphylococcus epidermidis NRS 101; assay: MIC against Staphylococci, broth microdilution; format: cell-based; conditions: Staphylococcus epidermidis, NRS101; TSB; read-out: MIC
Procedure: as §1, with “Institute (CLSI) 1. Staphylococci” for “Institute (CLSI). Enterococci”, “Table 2” for “Table 1”

[16] = tested on: MRSA NRS 384 (MRSA USA300); assay: MIC against Staphylococci, broth microdilution; format: cell-based, Staphylococcus aureus; conditions: Staphylococcus aureus; TSB; read-out: MIC
Procedure: as §1, with “Institute (CLSI) 1. Staphylococci” for “Institute (CLSI). Enterococci”, “Table 2” for “Table 1”

Compound | MIC ([1]; Table 7, read-out: MIC in TSB) [µg/mL] | MIC ([2]; Table 7, read-out: MIC in TSB) [µg/mL] | MIC ([3]; Table 7, read-out: MIC in TSB) [µg/mL] | MIC ([4]; Table 7, read-out: MIC in TSB) [µg/mL] | MIC ([5]; Table 7, read-out: MIC in TSB) [µg/mL] | MIC ([6]; Table 7, read-out: MIC in TSB) [µg/mL] | MIC ([7]; Table 7, read-out: MIC in TSB) [µg/mL] | MIC ([8]; Table 7, read-out: MIC in TSB) [µg/mL] | further results
NS(=O)(=O)c1nnc(NCc2cccc(C(F)(F)F)c2)s1 [CAI0007, 5-((3-(trifluoromethyl)benzyl)amino)-1,3,4-thiadiazole-2-sulfonamide] | 4 (≈ 11.8 µM) | 8 (≈ 23.6 µM) | 8 (≈ 23.6 µM) | 8 (≈ 23.6 µM) |  |  |  |  | 
NS(=O)(=O)c1nnc(NCc2ccc(Br)cc2)s1 [CAI0003, 5-((4-bromobenzyl)amino)-1,3,4-thiadiazole-2-sulfonamide] | > 64 | > 64 | > 64 | > 64 |  |  |  |  | 
NS(=O)(=O)c1nnc(NCc2ccc(C(F)(F)F)cc2)s1 [CAI0008, 5-((4-(trifluoromethyl)benzyl)amino)-1,3,4-thiadiazole-2-sulfonamide] | > 64 | > 64 | > 64 | > 64 |  |  |  |  | 
NS(=O)(=O)c1nnc(NC(=O)C2CC2)s1 [CAI0020, N-(5-Sulfamoyl-1,3,4-thiadiazol-2-yl)cyclopropanecarboxamide] | 0.003 (≈ 0.0121 µM) | 0.007 (≈ 0.0282 µM) | 0.007 (≈ 0.0282 µM) | 0.001 (≈ 0.00403 µM) | 0.007 (≈ 0.0282 µM) | 0.007 (≈ 0.0282 µM) | 0.015 (≈ 0.0604 µM) | 0.015 (≈ 0.0604 µM) | 
CC(=O)Nc1nnc(S(C)(=O)=O)s1 [CAI0025, N-(5-(Methylsulfonyl)-1,3,4-thiadiazol-2-yl)acetamide] | > 128 | > 128 | > 128 | > 128 | > 128 | > 128 | > 128 | > 128 | 
3-cyclohexyl-N-(5-sulfamoyl-1,3,4-thiadiazol-2-yl) propenamide [CAI0019] |  |  |  |  |  |  |  |  | MIC in TSB ([1]; Table 7): 0.015 µg/mL; MIC in TSB ([2]; Table 7): 0.007 µg/mL; MIC in TSB ([3]; Table 7): 0.007 µg/mL; MIC in TSB ([4]; Table 7): 0.003 µg/mL; MIC in TSB ([5]; Table 7): 0.007 µg/mL; MIC in TSB ([6]; Table 7): 0.015 µg/mL; MIC in TSB ([7]; Table 7): 0.015 µg/mL; MIC in TSB ([8]; Table 7): 0.015 µg/mL
NS(=O)(=O)c1nnc(NC(=O)CC2CCCCC2)s1 [CAI0029, 2-Cyclohexyl-N-(5-sulfamoyl-1,3,4-thiadiazol-2-yl)acetamide] | 0.015 (≈ 0.0493 µM) | 0.06 (≈ 0.197 µM) | 0.03 (≈ 0.0986 µM) | 0.001 (≈ 0.00329 µM) | 0.015 (≈ 0.0493 µM) | 0.015 (≈ 0.0493 µM) | 0.03 (≈ 0.0986 µM) | 0.007 (≈ 0.023 µM) | 
NS(=O)(=O)c1nnc(NC(=O)c2ccccc2)s1 [CAI0012, N-(5-Sulfamoyl-1,3,4-thiadiazol-2-yl)benzamide] | 8 (≈ 28.1 µM) | 2 (≈ 7.03 µM) | 1 (≈ 3.52 µM) | 1 (≈ 3.52 µM) | 4 (≈ 14.1 µM) | 4 (≈ 14.1 µM) | 4 (≈ 14.1 µM) | 4 (≈ 14.1 µM) | MIC [9]: > 64 µg/mL; MIC [10]: > 64 µg/mL; MIC [11]: > 64 µg/mL; MIC [12]: > 64 µg/mL; MIC [13]: > 64 µg/mL; MIC [14]: > 64 µg/mL; MIC [15]: > 64 µg/mL; MIC ([1]; Table 1, read-out: MIC): 8 µg/mL (≈ 28.1 µM); MIC ([2]; Table 1, read-out: MIC): 2 µg/mL (≈ 7.03 µM); MIC ([3]; Table 1, read-out: MIC): 1 µg/mL (≈ 3.52 µM); MIC ([4]; Table 1, read-out: MIC): 1 µg/mL (≈ 3.52 µM); MIC ([5]; Table 1, read-out: MIC): 4 µg/mL (≈ 14.1 µM); MIC ([6]; Table 1, read-out: MIC): 4 µg/mL (≈ 14.1 µM); MIC ([7]; Table 1, read-out: MIC): 4 µg/mL (≈ 14.1 µM); MIC ([8]; Table 1, read-out: MIC): 4 µg/mL (≈ 14.1 µM); MIC [16]: > 64 µg/mL
NS(=O)(=O)c1nnc(NC(=O)C2CCCC2)s1 [CAI0023, N-(5-Sulfamoyl-1,3,4-thiadiazol-2-yl)cyclopentanecarboxamide] | 1 (≈ 3.62 µM) | 0.25 (≈ 0.905 µM) | 0.25 (≈ 0.905 µM) | 0.06 (≈ 0.217 µM) | 0.5 (≈ 1.81 µM) | 0.5 (≈ 1.81 µM) | 0.5 (≈ 1.81 µM) | 0.5 (≈ 1.81 µM) | 
NS(=O)(=O)c1nnc(NC(=O)C2CCCCC2)s1 [CAI0022, N-(5-Sulfamoyl-1,3,4-thiadiazol-2-yl)cyclohexanecarboxamide] | 0.25 (≈ 0.861 µM) | 0.25 (≈ 0.861 µM) | 0.125 (≈ 0.43 µM) | 0.015 (≈ 0.0517 µM) | 0.25 (≈ 0.861 µM) | 0.25 (≈ 0.861 µM) | 0.5 (≈ 1.72 µM) | 0.25 (≈ 0.861 µM) | 
NS(=O)(=O)c1nnc(NC(=O)CC2CCCC2)s1 [CAI0021, 2-Cyclopentyl-N-(5-sulfamoyl-1,3,4-thiadiazol-2-yl)acetamide] | 0.03 (≈ 0.103 µM) | 0.06 (≈ 0.207 µM) | 0.03 (≈ 0.103 µM) | 0.003 (≈ 0.0103 µM) | 0.03 (≈ 0.103 µM) | 0.03 (≈ 0.103 µM) | 0.06 (≈ 0.207 µM) | 0.03 (≈ 0.103 µM) | 
NS(=O)(=O)c1nnc(NCc2cccc(Br)c2)s1 [CAI0004, 5-((3-bromobenzyl)amino)-1,3,4-thiadiazole-2-sulfonamide] | 8 (≈ 22.9 µM) | 16 (≈ 45.8 µM) | 8 (≈ 22.9 µM) | 8 (≈ 22.9 µM) |  |  |  |  | 
CC(C)CC(=O)Nc1nnc(S(N)(=O)=O)s1 [CAI0026, 3-Methyl-N-(5-sulfamoyl-1,3,4-thiadiazol-2-yl)butanamide] | 0.5 (≈ 1.89 µM) | 0.125 (≈ 0.473 µM) | 0.125 (≈ 0.473 µM) | 0.003 (≈ 0.0113 µM) | 0.25 (≈ 0.946 µM) | 0.25 (≈ 0.946 µM) | 0.25 (≈ 0.946 µM) | 0.25 (≈ 0.946 µM) | 
CCCCCCC(=O)Nc1nnc(S(N)(=O)=O)s1 [CAI0027, N-(5-Sulfamoyl-1,3,4-thiadiazol-2-yl)heptanamide] | 0.015 (≈ 0.0513 µM) | 0.015 (≈ 0.0513 µM) | 0.007 (≈ 0.0239 µM) | 0.001 (≈ 0.00342 µM) | 0.007 (≈ 0.0239 µM) | 0.015 (≈ 0.0513 µM) | 0.015 (≈ 0.0513 µM) | 0.007 (≈ 0.0239 µM) | 
NS(=O)(=O)c1nnc(NCc2ccccc2C(F)(F)F)s1 [CAI0006, 5-((2-(trifluoromethyl)benzyl)amino)-1,3,4-thiadiazole-2-sulfonamide] | > 64 | > 64 |  | > 64 |  |  |  |  | 
NS(=O)(=O)c1nnc(NCc2ccccc2Cl)s1 [CAI0002, 5-((2-chlorobenzyl)amino)-1,3,4-thiadiazole-2-sulfonamide] | > 64 | > 64 | > 64 | > 64 |  |  |  |  | 
NS(=O)(=O)c1nnc(NCc2ccc(Cl)cc2)s1 [CAI0001, 5-((4-chlorobenzyl)amino)-1,3,4-thiadiazole-2-sulfonamide] | > 64 | > 64 | > 64 | 8 (≈ 26.2 µM) |  |  |  |  | 
NS(=O)(=O)c1nnc(NC(=O)C2CCC2)s1 [CAI0018, N-(5-Sulfamoyl-1,3,4-thiadiazol-2-yl)cyclobutanecarboxamide] | 1 (≈ 3.81 µM) | 0.5 (≈ 1.91 µM) | 0.5 (≈ 1.91 µM) | 0.25 (≈ 0.953 µM) | 1 (≈ 3.81 µM) | 0.5 (≈ 1.91 µM) | 1 (≈ 3.81 µM) | 1 (≈ 3.81 µM) | 
CC(C)(C)CC(=O)Nc1nnc(S(N)(=O)=O)s1 [CAI0028, 3,3-Dimethyl-N-(5-sulfamoyl-1,3,4-thiadiazol-2-yl)butanamide] | 0.03 (≈ 0.108 µM) | 0.015 (≈ 0.0539 µM) | 0.003 (≈ 0.0108 µM) | 0.003 (≈ 0.0108 µM) | 0.03 (≈ 0.108 µM) | 0.03 (≈ 0.108 µM) | 0.03 (≈ 0.108 µM) | 0.015 (≈ 0.0539 µM) | 
NS(=O)(=O)c1nnc(NCc2ccccc2)s1 [CAI0005, 5-(benzylamino)-1,3,4-thiadiazole-2-sulfonamide] | > 64 | > 64 |  | > 64 |  |  |  |  | 
